Measured values from US6420605B1, “Benzamidoxim derivatives, intermediate products and methods for preparing and using them as fungicides” (BASF Aktiengesellschaft, priority 1997, dated 2002).

System: powdery mildew of wheat (Erysiphe graminis f.sp.tritici)
Experiment: Efficacy against powdery mildew of wheat (protective spray, greenhouse)
Format: in vivo
Conditions: wheat seedlings cv. Frühgold sprayed 24 hours before dusting with spores, after 7 days, untreated plants 80%
Protocol: Leaves of wheat seedlings cv. “Frühgold” grown in pots were sprayed to runoff point with aqueous preparation of active ingredient made with a stock solution composed of 10% active ingredient, 63% cyclohexanone and 27% emulsifier and, 24 hours after the spray coating had dried on, dusted with spores of powdery mildew of wheat (Erysiphe graminis f.sp.tritici). The test plants were subsequently placed in the greenhouse at from 20 to 22° C. and a relative atmospheric humidity of 75 to 80%. After 7 days, the extent of the mildew development was determined visually in % of the total leaf area.

[1] = Example 3, aqueous preparation comprising 63 ppm active ingredient

SMILES | extent of the mildew development determined visually in % of the total leaf area [1] | extent of the mildew development determined visually in % of the total leaf area (Example 4, concentration not given)
O=C(Cc1ccccc1)NC(=NOCC1CC1)c1c(F)cccc1OC(F)F [I.6, N-Phenylacetyl-2-difluoromethoxy-6-fluorobenzamide O-cyclopropylmethyl oxime] | free from disease | 
C=CCCON=C(NC(=O)Cc1ccccc1)c1c(F)cccc1OC(F)F [I.3, N-Phenylacetyl-2-difluoromethoxy-6-fluorobenzamide O-allylmethyl oxime] | free from disease | 
N#Cc1c(F)cccc1OC(F)F [II.1, 2-Difluoromethoxy-6-fluorobenzonitrile] |  | free from disease
